According to patent EP0597303A2, “Cephalosporin derivatives” (priority 1992, dated 1994):
Structures can show the parent of a compound that is named as a salt. Where two headings read alike, the source gives them in different places.

Experiments:
[1] = tested on: Enter. cloacae 4192-2; assay: MIC, Agar (Mueller Hinton) Dilution Method; type: cell-based; conditions: Enterobacter cloacae, 41922
How it was run: (§1)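 MIC, µg/ml. Agar dilution, Mueller Hinton. Gram-pos and Gram-neg strains, in vitro.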

[2] = tested on: Str. pneumoniae 6302; assay: MIC, Agar (Mueller Hinton) Dilution Method; type: cell-based; conditions: Streptococcus pneumoniae, Gram Positive and Others
How it was run: as §1

[3] = Enter. cloacae 4192-2, Gram Negative, read-out: MIC

| SMILES | MIC [1] | MIC [1, 3] | MIC [2] |
| --- | --- | --- | --- |
| O=C(Cc1cccs1)N[C@@H]1C(=O)N2C(C(=O)O)=C(COC(=O)N3CCN(c4c(F)cc5c(=O)c(C(=O)O)cn(C6CC6)c5c4F)CC3)CS[C@H]12 [Formula Ia, [6R,7R]-3-[[[[4-(3-Carboxy-1-cyclopropyl-6,8-difluoro-1,4-dihydro-4-oxo-7-quinolinyl)-1-piperazinyl]carbonyl]-oxy]-methyl]-8-oxo-7-[(2-thienylacetyl)amino]-5-thia-1-azabicyclo-[4.2.0]oct-2-ene-2-carboxylic acid] | 0.0625 µg/mL | – | – |
| N#CCC(=O)N[C@@H]1C(=O)N2C(C(=O)O)=C(COC(=O)NC3CCN(c4c(F)cc5c(=O)c(C(=O)O)cn(C6CC6)c5c4F)C3)CS[C@H]12 (stereo partly drawn) [Formula Ib, [6R,7R]-3-[[[[[1-(3-Carboxy-1-cyclopropyl-6,8-difluoro-1,4-dihydro-4-oxo-7-quinolinyl-3-[R,S]-pyrrolidinyl]-amino]carbonyl]oxy]methyl]-7-[(cyanoacetyl)amino]-8-oxo-5-thia-1-azabicyclo[4.2.0]oct-2-ene-2-carboxyiic acid monosodium salt] | – | 0.0625 µg/mL | – |
| N#CCC(=O)N[C@@H]1C(=O)N2C(C(=O)O)=C(COC(=O)N[C@H]3CCN(c4c(F)cc5c(=O)c(C(=O)O)cn(C6CC6)c5c4F)C3)CS[C@H]12 [Formula Iba, [6R-[3(S^*), 6 alpha, 7 beta]]-3-[[[[[1-(3-Carboxy-1-cyclopropyl-6,8-difluoro-1,4-dihydro-4-oxo-7-quinolinyl-3-pyrrolidinyl]-amino]carbonyl]oxy]methyl]-7-[(cyanoacetyl)amino]-8-oxo-5-thia 1-azabicyclo[4.2.0]oct-2-ene-2-carboxylic acid monosodium salt] | – | ≤ 0.0156 µg/mL | 0.0625 µg/mL |
| N#CCC(=O)N[C@@H]1C(=O)N2C(C(=O)O)=C(COC(=O)N[C@@H]3CCN(c4c(F)cc5c(=O)c(C(=O)O)cn(C6CC6)c5c4F)C3)CS[C@H]12 [Formula Ibb, [6R-[3(R^*), 6 alpha, 7 beta]]-3-[[[[[1-(3-Carboxy-1-cyclopropyl-6,8-difluoro-1,4-dihydro-4-oxo-7-quinolinyl-3-pyrrolidinyi]amino]carbonyl]oxy]methyL]-7-[(cyanoacetyl)amino]-8-oxo-5-thia-1-azabicyclo[4.2.0]oct-2-ene-2-carboxylic acid monosodium salt] | 0.0313 µg/mL | – | 0.0625 µg/mL |
